Source: publication PMC9088798, “An Approach to Derive Functional Peptide Inhibitors of Transcription Factor Activity” (JACS Au, 2022)
Where no end group is shown, it is not given here.

Tests used:
TRE-mDHFR = assay: DHFR activity assay (NADPH turnover at 340 nm), TRE-mDHFR; type: biochemical, murine
Experimental: (§1) (A) Fifteen TRE sites were introduced into the mDHFR gene (2 silent and 13 substitutions) to allow for a cJun-induced transcriptional block. […] Change in absorbance at 340 nm was measured to determine the rate of NADPH turnover by (B) WT-mDHFR and (C) TRE-mDHFR with or without the substrate DHF. […] Specific activity was calculated from the linear initial rate (first 2.5 min for WT-mDHFR, first 10 min for TRE-mDHFR; +NADPH only reaction blank subtracted). Data are averages from triplicate experiments with errors shown as one standard deviation.
(§2) Jupiter Proteo column (4-μm particle size, 90 Å pore size, 250 × 10 mm; Phenomenex) using a water:acetonitrile gradient (0.1% TFA). Peptides without a SUMO tag, were concentrated after Histrap elution and HPLC purified. […]
(§3) or Mtx (1 µM in reaction). Reactions were initiated by the addition of DHF (50 µM in reaction plus a blank reaction with no DHF) and the absorbance at 340 nm of samples was measured using a Varian Cary 50 UV-Vis spectrophotometer. The specific activity (∆OD/minsample― ∆OD/minblank) was calculated using the following equation. Specific activity = 12.3× mg protein Library Construction and TBS Assay: Library inserts were produced using PCR fill-in reactions from synthesised primers (Sigma) with degenerate codons at the desired positions to produce the correct residue options. […]

WT-mDHFR = assay: DHFR activity assay (NADPH turnover at 340 nm), WT-mDHFR; type: biochemical, murine
Experimental: as §1, §2, §3

cJun/TRE DNA interaction = target: T1, cJun/TRE DNA interaction (Homo sapiens, UniProt P05412); assay: CD TRE DNA peak shift, antagonism of cJun/TRE DNA interaction; type: biochemical; settings: cJun 20 μM, TRE DNA 5 μM, DNA peak ~281 nm, Hill equation; three independent experiments, one SD; pH 7.4
T1 construct: The human cJun bZIP domain spans from Arg252 to Leu308; His-SUMO (N, cleaved yes); AS cap (two residues Ala-Ser) (N); GAP cap (three residues Gly-Ala-Pro) (C); made in house; host or cells: E. coli (pET21-His-SUMO plasmid)
Experimental: The binding of cJun to TRE DNA can be observed by monitoring a DNA absorbance peak in the CD spectrum centered at ∼281 nm.[44] […] The addition of cJun (20 μM) to TRE DNA (5 μM) decreases this DNA peak by 55% as the cJun engages its target TRE site and alters the DNA structure (Figure 6A). Subsequent titration of HingeW into this bound cJun/TRE DNA mixture reverses the peak shift, with the peak increasing as DNA is released.
Figure 6 HingeW antagonizes cJun/TRE DNA interaction more effectively than A-FosW. (A) CD spectra showing a shift in the TRE DNA peak at ∼281 nm upon addition of cJun, which is reversed by the titration of HingeW into the sample, as HingeW sequesters the cJun in a nonfunctional heterodimer. […] EMSA showing the (C) unbound TRE DNA band shift upon addition of cJun and the subsequent restoration of the unbound DNA band intensity upon titration of either (D) HingeW or (E) A-FosW. (F). For both CD and EMSA, data was averaged from three independent experiments and the plotted error bars indicate one standard deviation. […]
(§4) µM) alongside ampicillin, kanamycin and chloramphenicol to maintain the required plasmids, and IPTG (1 mM) to induce protein expression. The library transformants were […]
increased to the optimum 4 µM in subsequent passages. […] This allows the occurrence of library members to be monitored as winner sequences are selected for. […]

[1] = test system: cJun bZIP / TRE sites in TRE-mDHFR gene; assay: Transcription block survival (TBS) colony counting in E. coli; type: cell-based, human cJun, expressed in E. coli; settings: three experimental repeats
Experimental: Figure 3 Transcription block survival (TBS) assay to derive functionally active cJun inhibitors. (A) Schematic illustrating the design and operation of TBS. (B) Controlled numbers of E. coli expressing the indicated proteins were plated on selective media and growth rates were calculated by counting colony-forming units. […] (2) A small effect on colony numbers is observed when cJun bZIP is additionally expressed. (3) TRE-mDHFR can replace the inhibited ecDHFR with colony count lower than for WT as expected. […] Although (6) cFos LZ and (7) FosW are known cJun-binders, they are unable to effectively dissociate the cJun bZIP from TRE DNA. However, (8) A-FosW and the TBS-derived hit (9) HingeW remove TRE-mDHFR transcriptional blocks to restore cell survival. Bar charts represent averages of three experimental repeats. Errors are shown as one standard deviation. Selected P values from a t-test are indicated (*P ≤ 0.05; **P ≤ 0.01; ****P ≤ 0.0001) with values for all possible comparisons within the bar chart reported in Figure S7. Serial dilutions were used to quantify colony numbers where required. Also shown are representative plate images and schematics to illustrate the effect upon TRE-mDHFR transcription. […]
Library Construction and TBS Assay: Library inserts were produced using PCR fill-in reactions from synthesised primers (Sigma) with degenerate codons at the desired positions to produce the correct residue options. The library was subcloned using SacI and AscI sites into the pET24a plasmid containing A-FosW. The primers used were cJun- […]
-3’ and cJun-Hinge-Lib_R: 5’-
-3’. The library DNA was transformed into NEB 10-beta electrocompetent E. coli cells. The following equation was utilised to determine library […]
coverage by the number of single colonies: where E is the percentage […] of the library missing, m is the number of colonies collected and n is the library size. This […]
covered. Library DNA quality was assessed by sequencing both the DNA pool and a number of single colonies to show degenerate codons in the correct positions in the pool and to show a diversity of library members from single colonies. The pool of library DNA was transformed into BL21 Gold cells already containing pES300d-TRE-mDHFR and […]
as §4
however a lower stringency is used initially before selection is increased in later steps.
Colonies from this first round of selection were pooled and serially grown in liquid culture at starting OD600 of 0.05 and grown at 37°C with shaking at 200 rpm until the OD600 […]
increased to the optimum 4 µM in subsequent passages. Bacteria containing the most effective functional antagonists were expected to produce higher levels of TRE-mDHFR which provides a growth advantage, and these will dominate the culture. At each passage step, a sample of the culture was plated on LB agar (supplemented with antibiotics to maintain plasmids) to select and sequence individual colonies, and a DNA pool was also sequenced. This allows the occurrence of library members to be monitored as winner sequences are selected for. Assay Validation experiments utilised a modified assay methodology whereby overnight cultures from glycerol stocks of the Control Strains (Figure S6) were diluted to OD600=0.5 and 50 µL was plated on a selective M9 minimal […]

T1 sequence (P05412 252-308): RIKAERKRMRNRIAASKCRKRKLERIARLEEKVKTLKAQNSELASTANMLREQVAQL

CN(Cc1cnc2nc(N)nc(N)c2n1)c1ccc(C(=O)N[C@@H](CCC(=O)O)C(=O)O)cc1 [MTX, methotrexate, reference compound]
inhibition by MTX (TRE-mDHFR): clear inhibition of the reaction
inhibition by MTX (WT-mDHFR): clear inhibition of the reaction

MASLDELQAEIEQLEERNYALRKEIEDLQKQLEKLGAPHHHHHH [FosW, reference compound]
IC50 (cJun/TRE DNA interaction): 119.8 ± 1.1 µM

cFos LZ: human cFos leucine zipper domain, Thr162 to Leu193 [reference compound]
restoration of colony numbers of transcriptionally blocked cells ([1]; TRE-mDHFR + cJun bZIP + peptide vs TRE-mDHFR + cJun bZIP, M9 + TMP + IPTG, P > 0.05): no significant increase in colony numbers

cJun LZ: cJun LZ only construct in which the 25 residue DBD was deleted; Ile277 to Leu308 (IARLEEKVKTLKAQNSELASTANMLREQVAQL; UniProt P05412 277-308, looked up, fragment) [reference compound]
effect of cJun LZ (DBD deleted) on colony formation ([1]; TRE-mDHFR + cJun LZ vs TRE-mDHFR only, P = 0.1): did not affect bacterial colony formation
